# Legend:
# Experiment in all cases: NCI 60 cell-line test
# Type in all cases: cell-based, human
# [1] = system: OVCAR-8; details: OVCAR-8 (Ovarian Cancer)
# Procedure, shortened: (§1)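 SRB protein stain, A515, TCA-fixed; 48 h continuous drug exposure, ≥5 concentrations at 10-fold dilutions; RPMI 1640/5% FBS. GI50 = 50% reduction in net protein increase vs control; TGI at Ti=Tz; LC50 at 50% loss vs time zero.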
# [2] = system: MCF7; details: MCF7 (Breast Cancer)
# Procedure, shortened: as §1
# [3] = system: ACHN; details: ACHN (Renal Cancer)
# Procedure, shortened: as §1
# [4] = system: MDA-MB-231/ATCC; details: MDA-MB-231/ATCC (Breast Cancer)
# Procedure, shortened: as §1
# [5] = system: A498; details: A498 (Renal Cancer)
# Procedure, shortened: as §1
# [6] = system: BT-549; details: BT-549 (Breast Cancer)
# Procedure, shortened: as §1
# [7] = system: UO-31; details: UO-31 (Renal Cancer)
# Procedure, shortened: as §1
# [8] = system: NCI/ADR-RES; details: NCI/ADR-RES (Breast Cancer)
# Procedure, shortened: as §1
# [9] = system: LOX IMVI; details: LOX IMVI (Melanoma)
# Procedure, shortened: as §1
# [10] = system: HS 578T; details: HS 578T (Breast Cancer)
# Procedure, shortened: as §1
# [11] = system: UACC-257; details: UACC-257 (Melanoma)
# Procedure, shortened: as §1
# [12] = system: SNB-19; details: SNB-19 (CNS Cancer)
# Procedure, shortened: as §1
# [13] = system: SK-OV-3; details: SK-OV-3 (Ovarian Cancer)
# Procedure, shortened: as §1
# [14] = read-out: LC50 (the source's name)
smiles,measurement,setting,value
CC1(C)C2CC[C@@]1(CS(=O)(=O)N(C1CCCCC1)C1CCCCC1)C(O)C2 (stereo partly drawn) [MT103],TGI,[1],>1.00E−04
same,IC50,[1]; read-out: G150,25.3 µM
same,CC50,[1]; [14],> 100 µM
same,TGI,[2],9.05E−05
same,IC50,[2]; read-out: G150,20.6 µM
same,CC50,[2]; [14],> 100 µM
same,TGI,[3],>1.00E−04
same,IC50,[3]; read-out: G150,23.8 µM
same,CC50,[3]; [14],> 100 µM
same,TGI,[4],4.71E−05
same,IC50,[4]; read-out: G150,16.9 µM
same,CC50,[4]; [14],> 100 µM
same,TGI,[5],9.07E−05
same,IC50,[5]; read-out: G150,30.4 µM
same,CC50,[5]; [14],> 100 µM
same,TGI,[6],>1.00E−04
same,IC50,[6]; read-out: G150,59.3 µM
same,CC50,[6]; [14],> 100 µM
same,TGI,[7],8.94E−05
same,IC50,[7]; read-out: G150,28 µM
same,CC50,[7]; [14],> 100 µM
same,TGI,[8],>1.00E−04
same,IC50,[8]; read-out: G150,34.9 µM
same,CC50,[8]; [14],> 100 µM
same,TGI,[9],3.95E−05
same,IC50,[9]; read-out: G150,19 µM
same,CC50,[9]; [14],82.3 µM
same,TGI,[10],>1.00E−04
same,IC50,[10]; read-out: G150,29 µM
same,CC50,[10]; [14],> 100 µM
same,TGI,[11],9.53E−05
same,IC50,[11]; read-out: G150,28.5 µM
same,CC50,[11]; [14],> 100 µM
same,TGI,[12],>1.00E−04
same,IC50,[12]; read-out: G150,68 µM
same,CC50,[12]; [14],> 100 µM
same,TGI,[13],>1.00E−04
same,IC50,[13]; read-out: G150,83.2 µM
same,CC50,[13]; [14],> 100 µM
